Measurements taken from patent US12116356B2, “N-heterocyclic five-membered ring-containing capsid protein assembly inhibitor, pharmaceutical composition thereof, and use thereof” (CHIA TAI TIANQING PHARMACEUTICAL GROUP CO., LTD., priority 2018, dated 2024).
Read-outs that look alike come from different tables or passages of the source.

Columns and labels:
Type in all cases: cell-based
HBV DNA in HepAD38 cells = assay: In vitro cell HBV DNA inhibitory activity (anti-HBV activity) in HepAD38 cells; conditions: Hepatitis B virus
Description: (§1) A bottle of HepG2.2.15 or HepAD38 cells in good exponential growth state was taken, washed once by adding 5 mL PBS, and then thereto was added 3 mL trypsin. After digesting at room temperature for 5 min, 2 mL trypsin was discarded, and then the sample was placed in a cell culture incubator and digested for 10 min. The cells were taken out from time to time and observed under a microscope (whether the cells were individually round and there was no adhesion between the cells). 10 mL complete medium was added to terminate the digestion. After pipetting into a single cell suspension, 10 μL of the cell suspension was taken out for cell counting with a cell counter, and then diluted with a complete medium and adjusted to a cell density of 1*10^5 cells/mL. Then the cell suspension was seeded at 1 mL/well in a 24-well plate with a multi-channel pipette (the 24-well plate was coated with 50 μg/mL Collagen I solution in advance), and cultured in a constant temperature CO2 incubator for 48 h.
(§2) Different compounds dissolved in DMSO were subjected to two-fold gradient dilution (10 concentrations in total) with complete medium. The compound was added, and fresh medium containing the compound was used to replace the spent medium every 72 hours. The cells were treated with the compound for 6 days. After the supernatant was siphoned off, 300 μL lysate (10 mM Tris-HCl, 1 mM EDTA, and 1% NP-40) was added to each well. After lysing at room temperature for 10 min, DNA was extracted, and HBV DNA in the intracellular viral capsid was measured by real-time fluorescence quantitative PCR. The inhibition rate was calculated based on the Ct value, and the EC50 value was calculated by the four-parameter method.

[1] = system: HBV DNA in HepG2.2.15 cells; assay: In vitro cell HBV DNA inhibitory activity (anti-HBV activity) in HepG2.2.15 cells; conditions: Hepatitis B virus
Description: as §1, §2

[2] = In vitro cytotoxicity (CCK-8) in HepAD38 cells; conditions: human
Description: (§3) A bottle of HepG2.2.15 or HepAD38 cells in good exponential growth state was taken, washed once by adding 5 mL PBS, and then thereto was added 3 mL trypsin. The sample was digested in a cell culture incubator, and taken out from time to time and observed under a microscope. When the cells just fell off, 1 mL trypsin was discarded. The residual liquid was placed in a cell culture incubator at 37° C. and digested for 8-15 min. The cells were taken out and observed under a microscope (whether the cells were individually round and there was no adhesion between the cells). 5 mL MEM medium was added for cell resuspension. The cells were then subjected to cell counting with a cell counter, diluted with a complete medium, and adjusted to a cell density of 2*10^5 cells/mL. Then the cells were seeded at 100 μL/well in a 96-well plate with a multi-channel pipette (the 96-well plate was coated with 50 μg/mL Collagen I solution in advance), and cultured in a constant temperature CO2 incubator for 24 h. The cells were treated by drug administration, and fresh medium containing the compound was used to replace the spent medium every 3 days. To control wells was added a drug-free medium containing 0.5% DMSO, and a control well containing a common medium was set up. 6 days after the administration, CCK-8 was added at 10 μL/well. After 1 to 2 hours, the absorbance was detected with microplate reader at 450 nm, and the inhibition rate and the CC50 were calculated.

[3] = In vitro cytotoxicity (CCK-8) in HepG2.2.15 cells; conditions: human
Description: as §3

[4] = 144 h, anti-HBV activity in HepAD38 cells, 6 days treatment, intracellular capsid HBV DNA by qPCR, read-out: EC50
[5] = 144 h, anti-HBV activity in HepG2.2.15 cells, 6 days treatment, intracellular capsid HBV DNA by qPCR, read-out: EC50

Cc1c(C(=O)Nc2ccc(F)c(C#N)c2)c(C)n(C)c1C(=O)C(=O)N[C@H]1C[C@H](O)C1 [Example 3, N-(3-cyano-4-fluorophenyl)-5-(2-((trans-3-hydroxycyclobutyl)amino)-2-oxoacetyl)-1,2,4-trimethyl-1H-pyrrole-3-carboxamide]
EC50 (HBV DNA in HepAD38 cells; [4]): 50 to 100 nM

Cc1c(C(=O)Nc2ccc(F)c(C#N)c2)c(C)n(C)c1C(=O)C(=O)NC1(CO)COC1 [Example 26]
EC50 (HBV DNA in HepAD38 cells; [4]): 50 to 100 nM | EC50 [1, 5]: 50 to 100 nM | CC50 at 6 days [2]: > 100000 nM | CC50 at 6 days [3]: > 100000 nM

Cc1c(C(=O)Nc2ccc(F)c(Cl)c2)c(C)n(C)c1C(=O)C(=O)N[C@@H](C)C(F)(F)F [Example 37, (S)—N-(3-chloro-4-fluorophenyl)-1,2,4-trimethyl-5-(2-oxo-2-((1,1,1-trifluoroprop-2-yl)amino)acetyl)-1H-pyrrole-3-carboxamide]
EC50 (HBV DNA in HepAD38 cells; [4]): < 10 nM

Cc1c(C(=O)Nc2ccc(F)c(C#N)c2)c(C)n(C)c1C(=O)C(=O)NC1(CO)CC1 [Example 27, N-(3-cyano-4-fluorophenyl)-5-(2-((1-(hydroxymethyl)cyclopropyl)amino)-2-oxoacetyl)-1,2,4-trimethyl-1H-pyrrole-3-carboxamide]
EC50 (HBV DNA in HepAD38 cells; [4]): 10 to 50 nM | EC50 [1, 5]: 10 to 50 nM | CC50 at 6 days [2]: > 100000 nM | CC50 at 6 days [3]: > 100000 nM

Cc1c(C(=O)Nc2cc(F)c(F)c(F)c2)c(C)n(C)c1C(=O)C(=O)NC1(C)COC1 [Example 47, 1,2,4-trimethyl-5-(2-((3-methyloxetan-3-yl)amino)-2-oxoacetyl)-N-(3,4,5-trifluorophenyl)-1H-pyrrole-3-carboxamide]
EC50 (HBV DNA in HepAD38 cells; [4]): < 10 nM | EC50 [1, 5]: < 10 nM

Cc1c(C(=O)Nc2ccc(F)c(C#N)c2)c(C)n(C)c1C(=O)C(=O)NC1(C)CCOCC1 [Example 24, N-(3-cyano-4-fluorophenyl)-1,2,4-trimethyl-5-(2-((4-methyltetrahydro-2H-pyran-4-yl)amino)-2-oxoacetyl)-1H-pyrrole-3-carboxamide]
EC50 (HBV DNA in HepAD38 cells; [4]): < 10 nM | EC50 [1, 5]: < 10 nM | CC50 at 6 days [2]: > 100000 nM | CC50 at 6 days [3]: > 100000 nM

[2H]C([2H])([2H])n1c(C)c(C(=O)Nc2ccc(F)c(C#N)c2)c(C)c1C(=O)C(=O)N[C@@H](C)C(F)(F)F [Example 60, (S)—N-(3-cyano-4-fluorophenyl)-2,4-dimethyl-1-(methyl-d3)-5-(2-oxo-2-((1,1,1-trifluoroprop-2-yl)amino)acetyl)-1H-pyrrole-3-carboxamide]
EC50 (HBV DNA in HepAD38 cells; [4]): < 10 nM

Cc1c(C(=O)Nc2ccc(F)c(C#N)c2)c(C)n(C)c1C(=O)C(=O)N[C@H]1C[C@@H](CO)C1 [Example 10, N-(3-cyano-4-fluorophenyl)-5-(2-((cis-3-(hydroxymethyl)cyclobutyl)amino)-2-oxoacetyl)-1,2,4-trimethyl-1H-pyrrole-3-carboxamide]
EC50 (HBV DNA in HepAD38 cells; [4]): 10 to 50 nM

Cc1c(C(=O)Nc2ccc(F)c(C#N)c2)c(C)n(C)c1C(=O)C(=O)N[C@H]1CCOC1 [Example 22]
EC50 (HBV DNA in HepAD38 cells; [4]): 10 to 50 nM | EC50 [1, 5]: 10 to 50 nM | CC50 at 6 days [2]: > 100000 nM | CC50 at 6 days [3]: > 100000 nM

Cc1c(C(=O)Nc2ccc(F)c(C#N)c2)cc(C(=O)C(=O)NC(C)(C)C)n1C [Example 16, 5-(2-(tert-butylamino)-2-oxoacetyl)-N-(3-cyano-4-fluorophenyl)-1,2-dimethyl-1H-pyrrole-3-carboxamide]
EC50 [1, 5]: < 10 nM | CC50 at 6 days [2]: > 100000 nM

Cn1cc(C(=O)Nc2ccc(F)c(C#N)c2)cc1C(=O)C(=O)NC1(C(F)(F)F)COC1 [Example 50, N-(3-cyano-4-fluorophenyl)-1-methyl-5-(2-oxo-2-((3-(trifluoromethyl)oxetan-3-yl)amino)acetyl)-1H-pyrrole-3-carboxamide]
EC50 (HBV DNA in HepAD38 cells; [4]): 50 to 100 nM

Cn1c(Br)c(C(=O)Nc2ccc(F)c(C#N)c2)c(Br)c1C(=O)C(=O)NC(C)(C)C [Example 20, 2,4-dibromo-5-(2-(tert-butylamino)-2-oxoacetyl)-N-(3-cyano-4-fluorophenyl)-1-methyl-1H-pyrrole-3-carboxamide]
EC50 (HBV DNA in HepAD38 cells; [4]): 10 to 50 nM | EC50 [1, 5]: 50 to 100 nM

Cc1c(C(=O)Nc2ccc(F)c(C#N)c2)c(C)n(C)c1C(=O)C(=O)NC1(C)CC(O)C1 (centres unmarked) [Example 46, N-(3-cyano-4-fluorophenyl)-5-(2-((3-hydroxy-1-methylcyclobutyl)amino)-2-oxoacetyl)-1,2,4-trimethyl-1H-pyrrole-3-carboxamide]
EC50 (HBV DNA in HepAD38 cells; [4]): 10 to 50 nM | EC50 [1, 5]: < 10 nM

Cc1c(C(=O)Nc2ccc(F)c(C#N)c2)c(C)n(C)c1C(=O)C(=O)N[C@H]1C[C@@H](O)C1 [Example 4, N-(3-cyano-4-fluorophenyl)-5-(2-((cis-3-hydroxycyclobutyl)amino)-2-oxoacetyl)-1,2,4-trimethyl-1H-pyrrole-3-carboxamide]
EC50 (HBV DNA in HepAD38 cells; [4]): 10 to 50 nM

Cc1c(C(=O)Nc2ccc(F)c(C#N)c2)c(F)c(C(=O)C(=O)N[C@@H](C)C(F)(F)F)n1C [Example 54, (S)—N-(3-cyano-4-fluorophenyl)-4-fluoro-1,2-dimethyl-5-(2-oxo-2-((1,1,1-trifluoroprop-2-yl)amino)acetyl)-1H-pyrrole-3-carboxamide]
EC50 (HBV DNA in HepAD38 cells; HePAD38, 144 h): 10 to 50 nM | EC50 ([1]; HepG2.2.15, 144 h): < 10 nM

Cc1c(C(=O)Nc2ccc(F)c(C#N)c2)c(Cl)n(C)c1C(=O)C(=O)NC1(C)COC1 [Example 34, 2-chloro-N-(3-cyano-4-fluorophenyl)-1,4-dimethyl-5-(2-((3-methyloxetan-3-yl)amino)-2-oxoacetyl)-1H-pyrrole-3-carboxamide]
EC50 (HBV DNA in HepAD38 cells; [4]): 10 to 50 nM

Cc1c(C(=O)Nc2ccc(F)c(C#N)c2)cn(C)c1C(=O)C(=O)NC(C)(C)C [Example 14, 5-(2-(tert-butylamino)-2-oxoacetyl)-N-(3-cyano-4-fluorophenyl)-1,4-dimethyl-1H-pyrrole-3-carboxamide]
EC50 (HBV DNA in HepAD38 cells; [4]): 10 to 50 nM

Cc1c(C(=O)Nc2ccc(F)c(C#N)c2)c(Cl)n(C)c1C(=O)C(=O)NC1(C)CC(O)C1 (centres unmarked) [Example 55, 2-chloro-N-(3-cyano-4-fluorophenyl)-5-(2-((3-hydroxy-1-methylcyclobutyl)amino)-2-oxoacetyl)-1,4-dimethyl-1H-pyrrole-3-carboxamide]
EC50 (HBV DNA in HepAD38 cells; HePAD38, 144 h): 10 to 50 nM | EC50 ([1]; HepG2.2.15, 144 h): 10 to 50 nM

CNC(=O)C1(NC(=O)C(=O)c2c(C)c(C(=O)Nc3ccc(F)c(C#N)c3)c(C)n2C)CC(F)(F)C1 [Example 28]
EC50 (HBV DNA in HepAD38 cells; HePAD38, 144 h): 10 to 50 nM

Cc1c(C(=O)Nc2ccc(F)c(F)c2)c(C)n(C)c1C(=O)C(=O)N[C@@H](C)C(F)(F)F [Example 38, (S)—N-(3,4-difluorophenyl)-1,2,4-trimethyl-5-(2-oxo-2-((1,1,1-trifluoroprop-2-yl)amino)acetyl)-1H-pyrrole-3-carboxamide]
EC50 (HBV DNA in HepAD38 cells; [4]): < 10 nM | EC50 [1, 5]: < 10 nM

Cc1c(C(=O)Nc2ccc(F)c(C#N)c2)c(Cl)n(C)c1C(=O)C(=O)NC1(C(F)(F)F)COC1 [Example 32]
EC50 (HBV DNA in HepAD38 cells; [4]): < 10 nM

Cc1c(C(=O)Nc2ccc(F)c(C#N)c2)c(Cl)n(C)c1C(=O)C(=O)NC1(C)CCOCC1 [Example 31]
EC50 (HBV DNA in HepAD38 cells; [4]): < 10 nM

Cc1c(C(=O)Nc2ccc(F)cc2)c(C)n(C)c1C(=O)C(=O)N[C@@H](C)C(F)(F)F [Example 39]
EC50 (HBV DNA in HepAD38 cells; [4]): < 10 nM | EC50 [1, 5]: < 10 nM | CC50 at 6 days [3]: > 100000 nM

Cc1c(C(=O)Nc2ccc(F)c(Cl)c2)c(C)n(C)c1C(=O)C(=O)NC1(C)CCOCC1 [Example 36, N-(3-chloro-4-fluorophenyl)-1,2,4-trimethyl-5-(2-((4-methyltetrahydro-2H-pyran-4-yl)amino)-2-oxoacetyl)-1H-pyrrole-3-carboxamide]
EC50 (HBV DNA in HepAD38 cells; [4]): < 10 nM

Cc1c(C(=O)Nc2ccc(F)c(C#N)c2)c(C)n(C)c1C(=O)C(=O)NC1COC1 [Example 5, N-(3-cyano-4-fluorophenyl)-1,2,4-trimethyl-5-(2-(oxetan-3-ylamino)-2-oxoacetyl)-1H-pyrrole-3-carboxamide]
EC50 (HBV DNA in HepAD38 cells; [4]): 10 to 50 nM

Cc1c(C(=O)Nc2ccc(F)c(Cl)c2)c(Cl)n(C)c1C(=O)C(=O)N[C@@H](C)C(F)(F)F [Example 35, (S)-2-chloro-N-(3-chloro-4-fluorophenyl)-1,4-dimethyl-5-(2-oxo-2-((1,1,1-trifluoroprop-2-yl)amino)acetyl)-1H-pyrrole-3-carboxamide]
EC50 (HBV DNA in HepAD38 cells; [4]): < 10 nM
